The term IC50 denotes the point on the concentration scale where inhibition reaches its midpoint.

Assay [1] concerns A549. The experiment in a line: Antiproliferative activity against human A549 cells incubated for 72 hrs by MTT assay. The conditions noted are these: A549, 72 h. Type of assay: functional, cell-based. (In general: Tetrazolium assays rely on reduction of a dye to a coloured formazan, in cell work by metabolically active cells.)
In another assay the test system is MDA-MB-468. The experiment in a line: Antiproliferative activity against human MDA-MB-468 cells incubated for 72 hrs by MTT assay. It is filed as functional, cell-based. The conditions noted are these: MDA-MB-468, 72 h.
In a further assay the test system is KG-1. Put plainly: Antiproliferative activity against human KG-1 cells incubated for 72 hrs by MTT assay. Type of assay: functional, cell-based. The conditions noted are these: KG-1, 72 h.
For a further assay, the system named is U-251. Put plainly: Antiproliferative activity against human U251 cells assessed as reduction in cell viability incubated for 72 hrs by MTT assay. It is filed as functional, cell-based. The conditions noted are these: U-251, 72 h.
In the next assay the test system is U-87 MG. The experiment in a line: Antiproliferative activity against human U87 cells assessed as reduction in cell viability incubated for 72 hrs by MTT assay. It is filed as functional, cell-based, U-87MG ATCC.
The next assay deals with T98G. Put plainly: Antiproliferative activity against human T98G cells assessed as reduction in cell viability incubated for 72 hrs by MTT assay. Type of assay: functional, cell-based.
In assay [2] the test system is A549. The experiment in a line: Antiproliferative activity against human A549 cells. It is filed as functional, cell-based.
Assay [3] deals with T1, Histone deacetylase 1 (Homo sapiens, UniProt Q13547). Put plainly: Inhibition of HDAC1 (unknown origin).
Assay [4] deals with T2, Epidermal growth factor receptor (Homo sapiens, UniProt P00533). Put plainly: Inhibition of EGFR (unknown origin).
For assay [5], the target named is T3, Protein deacetylase HDAC6 (Homo sapiens, UniProt Q9UBN7).
T3 sequence (Q9UBN7 whole entry): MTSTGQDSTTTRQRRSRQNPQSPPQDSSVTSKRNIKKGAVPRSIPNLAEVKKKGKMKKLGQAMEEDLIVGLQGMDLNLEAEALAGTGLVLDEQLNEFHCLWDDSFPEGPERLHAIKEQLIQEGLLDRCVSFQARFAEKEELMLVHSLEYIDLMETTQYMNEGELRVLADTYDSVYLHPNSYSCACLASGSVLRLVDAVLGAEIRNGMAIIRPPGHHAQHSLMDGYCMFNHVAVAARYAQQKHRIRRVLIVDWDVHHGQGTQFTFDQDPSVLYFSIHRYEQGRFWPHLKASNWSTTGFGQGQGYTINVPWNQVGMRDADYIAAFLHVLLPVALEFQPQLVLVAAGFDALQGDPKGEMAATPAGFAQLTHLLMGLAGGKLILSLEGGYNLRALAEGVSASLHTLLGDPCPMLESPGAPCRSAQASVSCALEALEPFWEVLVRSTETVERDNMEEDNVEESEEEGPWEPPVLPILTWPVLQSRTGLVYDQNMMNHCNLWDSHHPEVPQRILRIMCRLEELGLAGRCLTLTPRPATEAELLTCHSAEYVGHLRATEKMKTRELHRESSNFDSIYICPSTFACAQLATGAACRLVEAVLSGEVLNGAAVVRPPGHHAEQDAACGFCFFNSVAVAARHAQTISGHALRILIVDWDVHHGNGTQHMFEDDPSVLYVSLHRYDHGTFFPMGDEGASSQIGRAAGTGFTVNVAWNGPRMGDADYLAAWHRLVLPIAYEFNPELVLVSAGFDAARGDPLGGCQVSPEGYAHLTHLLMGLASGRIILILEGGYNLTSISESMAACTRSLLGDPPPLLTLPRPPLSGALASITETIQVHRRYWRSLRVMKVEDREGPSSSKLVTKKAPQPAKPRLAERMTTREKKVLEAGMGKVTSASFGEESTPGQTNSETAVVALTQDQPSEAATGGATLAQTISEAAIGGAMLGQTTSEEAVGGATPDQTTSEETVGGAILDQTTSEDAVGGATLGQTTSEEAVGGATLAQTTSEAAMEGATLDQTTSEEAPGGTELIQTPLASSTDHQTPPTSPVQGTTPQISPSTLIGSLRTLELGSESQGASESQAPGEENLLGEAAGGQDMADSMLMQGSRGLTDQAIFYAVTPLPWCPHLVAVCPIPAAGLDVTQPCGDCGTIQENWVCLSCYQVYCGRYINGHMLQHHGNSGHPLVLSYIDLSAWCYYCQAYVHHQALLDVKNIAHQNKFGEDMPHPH
Put plainly: Inhibition of HDAC6 (unknown origin).

Assay [6] has as its target Cyclin-dependent kinase 4 (Homo sapiens, UniProt P11802). The experiment in a line: Inhibition of CDK4 (unknown origin).
Assay [7] can be described thus: Inhibition of human SCC-25 cell metabolism incubated for 72 hrs by CCK8 assay. The conditions noted are these: SCC-25, 72 h. Type of assay: functional.
In assay [8] the target is Class 1 histone deacetylase (Homo sapiens, UniProt Q13547+O15379+Q92769+Q9BY41). The experiment in a line: Inhibition of HDAC class1 (unknown origin). It is filed as protein assay.
Assay [9] concerns the target T4, Histone-lysine N-methyltransferase EHMT2 (Homo sapiens, UniProt Q96KQ7).
T4 sequence (Q96KQ7 whole entry): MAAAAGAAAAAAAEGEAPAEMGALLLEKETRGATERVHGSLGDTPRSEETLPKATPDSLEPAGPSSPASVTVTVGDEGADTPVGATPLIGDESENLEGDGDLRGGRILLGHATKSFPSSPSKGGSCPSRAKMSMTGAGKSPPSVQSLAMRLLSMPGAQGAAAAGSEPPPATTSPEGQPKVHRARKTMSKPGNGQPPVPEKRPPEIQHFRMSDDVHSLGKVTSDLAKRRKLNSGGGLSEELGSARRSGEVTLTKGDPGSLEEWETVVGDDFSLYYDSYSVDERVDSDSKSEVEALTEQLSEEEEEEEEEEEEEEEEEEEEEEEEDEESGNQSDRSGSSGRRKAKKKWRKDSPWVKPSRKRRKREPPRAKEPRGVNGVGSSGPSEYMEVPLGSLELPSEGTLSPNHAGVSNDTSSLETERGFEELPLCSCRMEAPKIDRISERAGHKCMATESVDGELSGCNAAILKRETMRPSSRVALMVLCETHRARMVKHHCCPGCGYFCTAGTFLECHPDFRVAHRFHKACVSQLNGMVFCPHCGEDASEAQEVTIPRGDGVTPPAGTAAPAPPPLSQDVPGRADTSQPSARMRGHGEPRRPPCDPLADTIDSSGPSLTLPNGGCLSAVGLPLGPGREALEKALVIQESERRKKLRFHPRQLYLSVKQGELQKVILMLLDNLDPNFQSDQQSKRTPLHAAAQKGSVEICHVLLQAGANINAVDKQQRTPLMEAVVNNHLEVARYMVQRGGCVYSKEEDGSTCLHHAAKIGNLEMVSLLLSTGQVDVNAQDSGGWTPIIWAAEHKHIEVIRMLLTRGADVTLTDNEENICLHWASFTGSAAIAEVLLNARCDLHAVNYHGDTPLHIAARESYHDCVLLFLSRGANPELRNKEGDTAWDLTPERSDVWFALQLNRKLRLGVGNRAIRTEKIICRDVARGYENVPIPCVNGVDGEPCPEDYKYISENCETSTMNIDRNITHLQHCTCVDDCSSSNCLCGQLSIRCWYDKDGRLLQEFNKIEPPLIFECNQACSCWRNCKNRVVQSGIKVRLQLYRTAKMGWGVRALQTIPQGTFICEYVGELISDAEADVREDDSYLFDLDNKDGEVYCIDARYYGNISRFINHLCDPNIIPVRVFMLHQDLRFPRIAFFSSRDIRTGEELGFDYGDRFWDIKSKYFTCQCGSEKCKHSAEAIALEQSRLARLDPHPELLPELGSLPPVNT
Put plainly: Inhibition of G9a in human MDA-MB-231 cells assessed as effect on H3K9Me2 levels incubated for 48 hrs by immunofluorescence in-cell western assay. Type of assay: cell-based.

Assay [10] deals with Histone deacetylase. Put plainly: Inhibition of HDAC in human K562 cells using Boc-K(Ac)-AMC as substrate preincubated for 3 hrs followed by substrate addition and measured after 3 hrs by fluorescence method. Type of assay: cell-based.
Assay [11] concerns the target Histone deacetylase. Put plainly: Inhibition of HDAC in human HeLa cell nuclear extracts using Boc-Lys (acetyl)-AMC as substrate preincubated for 5 mins followed by substrate addition and measured after 30 mins by fluorescence based assay.
The target in assay [12] is T2, Epidermal growth factor receptor. The experiment in a line: Inhibition of EGFR (unknown origin) incubated for 40 mins by kinase-glo plus luminescence assay. Background: Kinase-Glo reads ATP consumption through a luciferase reaction.
For a further assay, the system named is CAPAN-1. The experiment in a line: Antiproliferative activity against human CAPAN 1 cells incubated for 72 hrs by CCK8 assay. Type of assay: functional, cell-based. The conditions noted are these: CAPAN-1, 72 h.
The target in assay [13] is T1, Histone deacetylase 1. Put plainly: Inhibition of human HDAC1 expressed in baculovirus expression system by fluorescence method.
A further assay relates to THP-1. Put plainly: Antiproliferative activity against human THP1 incubated for 72 hrs by Trypan Blue reagent based assay. The conditions noted are these: THP-1, 72 h. It is filed as functional, cell-based.
The test system of a further assay is 4T1. Put plainly: Antiproliferative activity against mouse 4T1 cells by EdU alexa fluor high-throughput imaging method. Type of assay: functional, cell-based.
In assay [14] the target is DNA (cytosine-5)-methyltransferase 1 (Homo sapiens, UniProt P26358). The experiment in a line: Inhibition of DNMT1 (unknown origin) using poly(dI-dC)-poly(dI-dC as substrate in presence of [3H-SAM] preincubated for 15 mins followed by substrate and [3H-SAM] addition and measured after 120 mins by liquid scintillation counting method.
Assay [15] deals with T1, Histone deacetylase 1. Put plainly: Inhibition of HDAC1 (unknown origin) using Ac-peptide as substrate in preincubated for 15 mins followed by substrate addition and measured after 60 mins by fluorescence method.
Assay [16] deals with DNA (cytosine-5)-methyltransferase 3A (Homo sapiens, UniProt Q9Y6K1). Put plainly: Inhibition of DNMT3A (unknown origin) using biotinylated DNA oligonucleotides as substrate in presence of [3H-SAM] preincubated for 15 mins followed by substrate and [3H-SAM] addition and measured after 4 hrs by liquid scintillation counting method.
Chain of DNA (cytosine-5)-methyltransferase 3A (Q9Y6K1 whole entry, looked up): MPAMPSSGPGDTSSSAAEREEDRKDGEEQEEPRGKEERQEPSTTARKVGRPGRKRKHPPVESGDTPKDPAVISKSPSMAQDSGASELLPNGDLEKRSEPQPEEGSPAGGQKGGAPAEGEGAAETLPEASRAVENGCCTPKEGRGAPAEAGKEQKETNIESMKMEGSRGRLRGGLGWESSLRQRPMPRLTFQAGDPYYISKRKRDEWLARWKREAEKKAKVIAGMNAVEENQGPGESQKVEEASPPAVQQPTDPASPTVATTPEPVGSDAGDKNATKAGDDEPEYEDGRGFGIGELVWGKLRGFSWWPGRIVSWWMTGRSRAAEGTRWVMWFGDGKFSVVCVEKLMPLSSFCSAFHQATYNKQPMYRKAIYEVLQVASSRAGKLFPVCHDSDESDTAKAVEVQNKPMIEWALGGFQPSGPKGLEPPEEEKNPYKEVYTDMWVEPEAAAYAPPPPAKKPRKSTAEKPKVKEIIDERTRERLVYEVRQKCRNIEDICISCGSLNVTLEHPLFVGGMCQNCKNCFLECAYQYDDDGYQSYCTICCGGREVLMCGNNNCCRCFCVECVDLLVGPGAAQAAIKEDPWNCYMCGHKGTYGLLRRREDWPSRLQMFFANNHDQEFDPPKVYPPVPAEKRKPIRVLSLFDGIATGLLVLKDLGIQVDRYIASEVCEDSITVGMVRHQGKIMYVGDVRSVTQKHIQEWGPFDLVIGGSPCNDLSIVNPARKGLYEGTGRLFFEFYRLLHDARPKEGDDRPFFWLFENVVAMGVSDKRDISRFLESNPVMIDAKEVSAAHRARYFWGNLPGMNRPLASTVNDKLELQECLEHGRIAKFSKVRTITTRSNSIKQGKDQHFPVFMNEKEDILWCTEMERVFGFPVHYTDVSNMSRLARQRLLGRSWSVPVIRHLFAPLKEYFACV

T1 sequence (Q13547 whole entry): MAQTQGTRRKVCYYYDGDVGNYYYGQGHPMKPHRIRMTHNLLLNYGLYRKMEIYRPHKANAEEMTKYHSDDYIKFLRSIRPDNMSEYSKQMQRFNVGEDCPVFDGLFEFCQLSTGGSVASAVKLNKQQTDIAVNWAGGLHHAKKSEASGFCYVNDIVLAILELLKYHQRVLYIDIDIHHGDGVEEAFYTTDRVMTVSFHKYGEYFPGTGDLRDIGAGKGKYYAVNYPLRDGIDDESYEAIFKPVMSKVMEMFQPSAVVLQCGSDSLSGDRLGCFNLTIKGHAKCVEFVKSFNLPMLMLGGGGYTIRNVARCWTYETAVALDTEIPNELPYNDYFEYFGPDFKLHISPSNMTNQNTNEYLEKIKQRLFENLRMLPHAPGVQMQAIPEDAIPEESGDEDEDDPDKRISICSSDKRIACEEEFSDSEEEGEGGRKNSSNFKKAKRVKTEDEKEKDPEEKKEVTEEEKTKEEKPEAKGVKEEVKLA
T2 sequence (P00533 whole entry): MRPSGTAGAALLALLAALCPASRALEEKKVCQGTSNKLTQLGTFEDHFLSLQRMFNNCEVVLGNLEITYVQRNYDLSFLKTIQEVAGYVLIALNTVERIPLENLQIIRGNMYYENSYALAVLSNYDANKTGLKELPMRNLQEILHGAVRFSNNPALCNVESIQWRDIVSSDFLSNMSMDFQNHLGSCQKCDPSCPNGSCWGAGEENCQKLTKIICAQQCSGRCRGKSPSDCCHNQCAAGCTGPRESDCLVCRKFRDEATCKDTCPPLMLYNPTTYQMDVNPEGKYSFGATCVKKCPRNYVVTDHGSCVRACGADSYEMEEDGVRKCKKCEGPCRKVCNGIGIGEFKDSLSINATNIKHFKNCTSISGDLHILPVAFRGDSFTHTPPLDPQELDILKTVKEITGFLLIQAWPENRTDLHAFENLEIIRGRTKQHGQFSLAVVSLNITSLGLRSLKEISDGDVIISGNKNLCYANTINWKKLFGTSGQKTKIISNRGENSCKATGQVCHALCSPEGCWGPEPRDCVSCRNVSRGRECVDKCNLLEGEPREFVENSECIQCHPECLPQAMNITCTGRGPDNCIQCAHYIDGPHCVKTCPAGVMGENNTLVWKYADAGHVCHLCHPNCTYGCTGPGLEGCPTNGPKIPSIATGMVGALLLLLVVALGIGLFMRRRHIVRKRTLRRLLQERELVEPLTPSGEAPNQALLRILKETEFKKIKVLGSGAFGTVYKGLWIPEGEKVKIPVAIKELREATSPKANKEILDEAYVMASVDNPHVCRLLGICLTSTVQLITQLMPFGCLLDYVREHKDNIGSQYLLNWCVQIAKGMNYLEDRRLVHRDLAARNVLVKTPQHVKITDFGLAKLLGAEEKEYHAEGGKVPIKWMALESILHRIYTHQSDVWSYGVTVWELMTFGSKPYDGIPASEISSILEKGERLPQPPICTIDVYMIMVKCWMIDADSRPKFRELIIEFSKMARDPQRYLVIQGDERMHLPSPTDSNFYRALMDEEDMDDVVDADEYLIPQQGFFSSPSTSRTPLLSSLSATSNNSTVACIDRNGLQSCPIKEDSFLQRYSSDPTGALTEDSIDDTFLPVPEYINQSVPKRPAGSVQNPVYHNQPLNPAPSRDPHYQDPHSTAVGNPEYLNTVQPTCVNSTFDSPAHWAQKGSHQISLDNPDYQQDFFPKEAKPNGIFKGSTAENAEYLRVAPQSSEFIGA
Chain of DNA (cytosine-5)-methyltransferase 1 (P26358 whole entry): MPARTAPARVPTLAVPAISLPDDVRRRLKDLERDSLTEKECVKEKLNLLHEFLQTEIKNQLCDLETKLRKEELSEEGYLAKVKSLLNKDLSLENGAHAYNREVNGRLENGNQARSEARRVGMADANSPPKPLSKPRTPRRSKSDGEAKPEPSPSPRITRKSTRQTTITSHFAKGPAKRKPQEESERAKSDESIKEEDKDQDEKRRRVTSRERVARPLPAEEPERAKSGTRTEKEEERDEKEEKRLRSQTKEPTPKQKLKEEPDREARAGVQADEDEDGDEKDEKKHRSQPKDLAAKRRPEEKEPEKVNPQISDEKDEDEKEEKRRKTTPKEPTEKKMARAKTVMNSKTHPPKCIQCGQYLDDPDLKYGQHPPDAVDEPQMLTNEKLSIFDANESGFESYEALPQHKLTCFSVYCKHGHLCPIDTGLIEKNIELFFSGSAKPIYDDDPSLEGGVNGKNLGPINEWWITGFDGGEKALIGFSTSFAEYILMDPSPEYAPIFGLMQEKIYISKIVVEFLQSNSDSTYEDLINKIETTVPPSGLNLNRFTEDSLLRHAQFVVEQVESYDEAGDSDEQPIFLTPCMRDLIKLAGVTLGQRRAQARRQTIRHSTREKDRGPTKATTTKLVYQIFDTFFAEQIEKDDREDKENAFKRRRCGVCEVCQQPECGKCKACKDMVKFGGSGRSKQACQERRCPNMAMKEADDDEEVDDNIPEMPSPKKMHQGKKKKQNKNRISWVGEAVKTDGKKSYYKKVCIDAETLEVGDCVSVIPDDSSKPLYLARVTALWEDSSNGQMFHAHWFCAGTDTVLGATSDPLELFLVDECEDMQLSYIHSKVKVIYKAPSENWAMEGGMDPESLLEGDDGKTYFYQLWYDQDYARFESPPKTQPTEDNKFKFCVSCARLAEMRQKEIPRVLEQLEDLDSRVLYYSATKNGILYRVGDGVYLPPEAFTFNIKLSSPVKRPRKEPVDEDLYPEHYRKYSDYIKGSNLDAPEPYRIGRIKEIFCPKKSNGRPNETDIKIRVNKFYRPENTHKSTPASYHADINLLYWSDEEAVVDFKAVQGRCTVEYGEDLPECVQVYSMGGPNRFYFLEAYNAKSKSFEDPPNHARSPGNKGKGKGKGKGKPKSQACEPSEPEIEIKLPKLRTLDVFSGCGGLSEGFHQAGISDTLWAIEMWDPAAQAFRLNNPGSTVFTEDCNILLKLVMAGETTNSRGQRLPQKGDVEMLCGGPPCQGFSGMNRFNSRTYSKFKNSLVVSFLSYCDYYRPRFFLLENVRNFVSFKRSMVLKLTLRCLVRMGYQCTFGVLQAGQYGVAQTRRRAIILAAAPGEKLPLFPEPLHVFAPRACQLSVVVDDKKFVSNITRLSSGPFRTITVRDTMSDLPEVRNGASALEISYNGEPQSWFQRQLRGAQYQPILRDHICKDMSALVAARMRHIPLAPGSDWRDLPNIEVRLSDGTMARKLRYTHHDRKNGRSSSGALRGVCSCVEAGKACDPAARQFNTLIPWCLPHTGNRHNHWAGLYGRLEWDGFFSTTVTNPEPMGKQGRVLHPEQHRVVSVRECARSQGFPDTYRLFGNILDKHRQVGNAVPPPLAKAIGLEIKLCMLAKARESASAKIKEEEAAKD
Chain of Cyclin-dependent kinase 4 (P11802 whole entry): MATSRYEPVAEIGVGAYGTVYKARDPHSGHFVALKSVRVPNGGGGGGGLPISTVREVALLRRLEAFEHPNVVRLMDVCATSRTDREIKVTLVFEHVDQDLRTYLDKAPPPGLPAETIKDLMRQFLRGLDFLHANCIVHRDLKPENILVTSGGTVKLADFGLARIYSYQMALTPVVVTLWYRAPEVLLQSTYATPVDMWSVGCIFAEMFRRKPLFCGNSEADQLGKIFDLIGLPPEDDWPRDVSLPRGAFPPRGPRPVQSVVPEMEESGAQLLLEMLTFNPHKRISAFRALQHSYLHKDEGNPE

As for `C=CC(=O)Nc1cc(Nc2nccc(-c3cn(C)c4ccccc34)n2)c(OC)cc1N(C)CCN(C)C` [OSIMERTINIB], the concentration for half-maximal inhibition (IC50) was determined as 1970 nM with A549 [1], 1300 nM with MDA-MB-468 and 530 nM in the assay with KG-1.
In the case of `O=C(CCCCCNC(=O)c1cc(O)c2c(c1)C(=O)c1cccc(O)c1C2=O)NO`, the half-inhibitory concentration (IC50) is 7000 nM in the assay on U-251, 8000 nM in the assay with U-87 MG and 5500 nM in the assay with T98G.
Regarding `O=C(CCCCCCn1cc(-c2ccc3ncnc(Nc4ccc(Br)cc4F)c3c2)nn1)NO`, the IC50 in the assay with A549 [2] amounted to 710 nM; against Histone deacetylase 1 [3], 1.1 nM; in assay [4] it was 10.3 nM; in [5], 4.3 nM.
For the molecule `Cc1nc2ccc(-c3nc(Nc4ccc(NC(=O)CCCCCC(=O)NO)cc4)ncc3F)cc2n1C(C)C`, the IC50 in assay [6] came to 1.2 nM; on Histone deacetylase 1 [3], 17 nM; in assay [7], 126 nM.
For the molecule `Cn1c(CCCCCCC(=O)NO)nc2cc(N(CCCl)CCCl)ccc21` [TINOSTAMUSTINE], the half-inhibitory concentration (IC50) in [8] amounted to 6 nM.
For the molecule `COc1ccc2c(NC3CCN(Cc4ccccc4)CC3)nc(NCCNC(=O)CCCCC(=O)NO)nc2c1`, the half-maximal inhibitory concentration (IC50) in assay [9] turned out to be 7140 nM; against Histone deacetylase [10], 5700 nM.
`COc1cc(NC(=O)CCCCCCCCCCC(=O)NO)ccc1Nc1nccc(-c2cn(C)c3ccccc23)n1`: the half-maximal inhibitory concentration (IC50) against Histone deacetylase [11] worked out at 85 nM; with A549 [1], 2190 nM; in assay [12] it was 5700 nM; with MDA-MB-468 it was 230 nM; in the assay with KG-1 it was 240 nM.
With `Cc1sc2c(c1C)C(c1ccc(Cl)cc1)=N[C@@H](CC(=O)Nc1ccc(C(=O)NO)cc1)c1nnc(C)n1-2`, the IC50 in the assay with CAPAN-1 was 150 nM; against Histone deacetylase 1 [13], 21 nM.
In the assay with A549 [2], `C#Cc1cccc(Nc2ncnc3cc(OCCOC)c(OCCOC)cc23)c1` [ERLOTINIB] displayed an IC50 of 16800 nM.
For the molecule `Cc1noc(C)c1-c1ccc2c(c1)c(Cc1ccc(F)cc1)cn2CCCCCCC(=O)NO`, 15500 nM corresponded to half-maximal inhibition in the assay on THP-1 (IC50).
In the assay on 4T1, `CCC(CC)(c1ccc(OCC(=O)NO)cc1)c1ccc(OCC(O)C(C)(C)C)c(C)c1` (centres undefined) showed an IC50 of 10000 nM.
For the molecule `O=C(NO)C1CCN(CC(O)COC(Cn2c3ccccc3c3ccccc32)Cn2c3ccccc3c3ccccc32)CC1` (centres undefined), the IC50 in assay [14] is 2020 nM; on Histone deacetylase 1 [15], 4160 nM; in [16] it was 930 nM.

Source of the values: ChEMBL document CHEMBL4818986, “Recent progress on HDAC inhibitors with dual targeting capabilities for cancer treatment” (Eur J Med Chem, 2020).
